Source: article PMC4255499 (Frontiers in Physiology, 2014)

Target: T1, α1-microglobulin (A1M) (Homo sapiens, UniProt P02760)
T1 construct: gene AMBP; Recombinant human A1M with an N-terminal His8-tag (tgA1M)
T1 sequence (P02760 20-203): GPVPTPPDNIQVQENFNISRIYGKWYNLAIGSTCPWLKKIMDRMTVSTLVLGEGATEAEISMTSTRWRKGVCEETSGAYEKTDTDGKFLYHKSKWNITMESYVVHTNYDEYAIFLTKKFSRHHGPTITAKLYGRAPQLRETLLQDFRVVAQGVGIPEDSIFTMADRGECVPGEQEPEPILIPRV
Experiment: SPR (tgA1M captured by anti-His antibody, […] binding model); also UV/Vis titration, induced CD, native PAGE shift

Structure (SMILES): C=CC1=C(C)C2=Cc3c(C=C)c(C)c4[n]3[Fe][n]3c(c(C)c(CCC(=O)O)c3=CC3=NC(=C4)C(C)=C3CCC(=O)O)=CC1=N2 [heme]
- Kd: 7.02 µM
